# Data reported in patent US20260022142A1, “MACROCYCLIC IMMUNOMODULATORS” (Bristol-Myers Squibb Company, priority 2022, published 2026).
# pIC50: −log10 of the molar value. Bridge positions count the residues as written; N and C are the ends. Square brackets hold non-standard residues; d marks the D form. Peptide text beside a SMILES is read from it. * marks the point of attachment. ξ: configuration not given here. Phe(4-COOH) = N[C@@H](Cc1ccc(C(=O)O)cc1)C(=O)O; Bip = N[C@@H](Cc1ccc(-c2ccccc2)cc1)C(=O)O; Phe(3-Me) = Cc1cccc(C[C@H](N)C(=O)O)c1; NH(CH2)12COOH = O=C(O)CCCCCCCCCCCCN*; hArg = N=C(N)NCCCC[C@H](N)C(=O)O; 4Pal = N[C@@H](Cc1ccncc1)C(=O)O; Cha = N[C@@H](CC1CCCCC1)C(=O)O; NMeN = CN[C@@H](CC(N)=O)C(=O)O; Thr(3ξ) = CC(O)[C@H](N)C(=O)O; 12Ado = NCCCCCCCCCCCC(=O)O; dNle = CCCC[C@@H](N)C(=O)O; Carboxymethyl = O=C(O)C*; Orn = NCCC[C@H](N)C(=O)O; Aun = NCCCCCCCCCCC(=O)O; Dab = NCC[C@H](N)C(=O)O; Dap = NC[C@H](N)C(=O)O; AEEA = NCCOCCOCC(=O)O; X11 = CC(C)(F)C(=O)*
# Target: T1, PD-1/PD-L1 interaction (PE-labeled human PD-L1-Ig binding to Jurkat cell line over-expressing human PD-1) (Homo sapiens, UniProt Q15116)
# T1 construct: expressed in transfected cells; host or cells: Jurkat
# Test: Jurkat-PD-1 Cell Binding High-Content Screening Assay (CBA)
# Format: cell-based
# Details: Jurkat cell line over-expressing human PD-1; PE-labeled PD-L1-Ig 20 nM final; read-out: Jurkat hPD1-PDL1 IC50
# Summary of the method: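 Human PD-L1-Ig carrying a covalent PE label on its Ig tag serves as the probe, applied at 20 nM final to compound-treated (2 h, 37° C) Jurkat-hPD-1 cells in medium with 10% fetal calf serum. After one hour, fixation and nuclear staining precede high-content image analysis.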
# T1 sequence (Q15116 25-288): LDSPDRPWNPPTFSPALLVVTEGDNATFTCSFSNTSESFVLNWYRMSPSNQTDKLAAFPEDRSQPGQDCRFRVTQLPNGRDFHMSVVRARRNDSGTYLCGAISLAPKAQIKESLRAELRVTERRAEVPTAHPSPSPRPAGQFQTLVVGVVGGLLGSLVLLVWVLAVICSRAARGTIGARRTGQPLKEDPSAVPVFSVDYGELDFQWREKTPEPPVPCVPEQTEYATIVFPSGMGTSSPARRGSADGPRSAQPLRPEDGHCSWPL
row,pIC50,Compound
1,7.94,CCCC[C@H]1NC(=O)[C@H](CCCN)NC(=O)[C@H](C(C)C)NC(=O)[C@H](Cc2ccc(-c3ccccc3)cc2)NC(=O)[C@H](C(C)C)NC(=O)[C@H](Cc2cccc(C)c2)NC(=O)[C@H](CC(=O)O)NC(=O)[C@H](Cc2ccc(OCC(=O)O)cc2)NC(=O)[C@H](CN)NC(=O)CSC[C@@H](C(=O)N[C@@H](CCCCN)C(=O)NCCCCCCCCCCC(=O)O)NC(=O)[C@H](CN)NC(=O)[C@H](C(C)C)NC(=O)[C@H](CC2CCCCC2)NC(=O)[C@H](CCN)NC1=O [Compound 2685] ({CH2CO}-[Dap]Y(Carboxymethyl)D[Phe(3-Me)]V[Bip]V[Orn][dNle][Dab][Cha]V[Dap]CK[Aun]-OH; thioether N-14)
2,7.42,Cc1cccc(C[C@@H]2NC(=O)[C@H](CC(=O)O)NC(=O)[C@H](Cc3ccc(OCC(=O)O)cc3)NC(=O)[C@H](Cc3ccncc3)NC(=O)CSC[C@@H](C(=O)N[C@@H](CCCN)C(=O)N[C@@H](CO)C(=O)NCCCCCCCCCCCC(=O)O)NC(=O)[C@H](C(C)O)NC(=O)[C@H](C(C)C)NC(=O)[C@H](CC3CCCCC3)NC(=O)[C@H](CCN)NC(=O)[C@@H](CC(C)C)NC(=O)[C@H](CCCN)NC(=O)[C@H](CCCNC(=O)C(C)(C)F)NC(=O)[C@H](Cc3ccc(-c4ccccc4)cc3)NC(=O)[C@H](Cc3ccc(O)cc3)NC2=O)c1 (stereo partly drawn) [Compound 3584] ({CH2CO}-[4Pal]Y(Carboxymethyl)D[Phe(3-Me)]Y[Bip][Orn](X11)[Orn][dL][Dab][Cha]V[Thr(3ξ)]C[Orn]S[12Ado]-OH; thioether N-14)
3,6.92,Cc1cccc(C[C@@H]2NC(=O)[C@H](CC(=O)O)NC(=O)[C@H](Cc3ccncc3)NC(=O)[C@H](Cc3ccc(OCC(=O)O)cc3)NC(=O)CSC[C@@H](C(=O)N[C@@H](CCN)C(=O)NCCCCCCCCCCC(=O)O)NC(=O)[C@H]([C@@H](C)O)NC(=O)[C@H](C(C)C)NC(=O)[C@H](CC3CCCCC3)NC(=O)[C@H](CCN)NC(=O)[C@@H](CC(C)C)NC(=O)[C@H](CCCN)NC(=O)[C@H](C(C)C)NC(=O)[C@H](Cc3ccc(-c4ccccc4)cc3)NC(=O)[C@H](C(C)C)NC2=O)c1 [Compound 1164] ({CH2CO}-Y(Carboxymethyl)[4Pal]D[Phe(3-Me)]V[Bip]V[Orn][dL][Dab][Cha]VTC[Dab][Aun]-OH; thioether N-14)
4,7.65,CC(C)C[C@H]1NC(=O)[C@H](CCCN)NC(=O)[C@H](C(C)C)NC(=O)[C@H](Cc2ccc(-c3ccccc3)cc2)NC(=O)[C@H](C(C)C)NC(=O)[C@H](Cc2c[nH]c3ccccc23)NC(=O)[C@H](CC(=O)O)NC(=O)[C@H](Cc2ccc(C(=O)O)cc2)NC(=O)[C@H](Cc2ccc(OCC(=O)O)cc2)NC(=O)CSC[C@@H](C(=O)N[C@@H](CCCCN)C(=O)NCCCCCCCCCCC(=O)O)NC(=O)[C@H](CCCCN)NC(=O)[C@H](C(C)C)NC(=O)[C@H](CC2CCCCC2)NC(=O)[C@H](CCN)NC1=O [Compound 2531] ({CH2CO}-Y(Carboxymethyl)[Phe(4-COOH)]DWV[Bip]V[Orn][dL][Dab][Cha]VKCK[Aun]-OH; thioether N-14)
5,7.97,Cc1cccc(C[C@@H]2NC(=O)[C@H](CC(=O)O)NC(=O)[C@H](Cc3ccc(OCC(=O)O)cc3)NC(=O)[C@H](CN)NC(=O)CSC[C@@H](C(=O)N[C@@H](CCN)C(=O)NCCCCCCCCCCC(=O)O)NC(=O)[C@H](CN)NC(=O)[C@H](C(C)C)NC(=O)[C@H](CC3CCCCC3)NC(=O)[C@H](CCN)NC(=O)[C@@H](CC(C)C)NC(=O)[C@H](CCCN)NC(=O)[C@H](C(C)C)NC(=O)[C@H](Cc3ccc(-c4ccccc4)cc3)NC(=O)[C@H](C(C)C)NC2=O)c1 [Compound 2558] ({CH2CO}-[Dap]Y(Carboxymethyl)D[Phe(3-Me)]V[Bip]V[Orn][dL][Dab][Cha]V[Dap]C[Dab][Aun]-OH; thioether N-14)
6,7.29,Cc1cccc(C[C@@H]2NC(=O)[C@H](CC(=O)O)NC(=O)[C@H](Cc3ccc(OCC(=O)O)cc3)NC(=O)[C@H](CCCNC(=N)N)NC(=O)CSC[C@@H](C(=O)N(C)[C@@H](CC(N)=O)C(=O)NCCOCCOCC(=O)NCCCCCCCCCCC(=O)O)NC(=O)[C@H](CCCN)NC(=O)[C@H](C(C)C)NC(=O)[C@H](CC3CCCCC3)NC(=O)[C@H](CCN)NC(=O)[C@@H](CC(C)C)NC(=O)[C@H](CCN)NC(=O)[C@H](C(C)C)NC(=O)[C@H](Cc3ccc(-c4ccccc4)cc3)NC(=O)[C@H](C(C)C)NC2=O)c1 [Compound 3321] ({CH2CO}-RY(Carboxymethyl)D[Phe(3-Me)]V[Bip]V[Dab][dL][Dab][Cha]V[Orn]C[NMeN][AEEA][Aun]-OH; thioether N-14)
7,7.13,Cc1cccc(C[C@@H]2NC(=O)[C@H](CC(=O)O)NC(=O)[C@H](Cc3ccc(OCC(=O)O)cc3)NC(=O)[C@H](CCCCNC(=N)N)NC(=O)CSC[C@@H](C(=O)N[C@@H](CCCCN)C(=O)N[C@@H](CO)C(=O)NCCCCCCCCCCC(=O)O)NC(=O)[C@H](C(C)O)NC(=O)[C@H](C(C)O)NC(=O)[C@H](CC3CCCCC3)NC(=O)[C@H](CCN)NC(=O)[C@@H](CC(C)C)NC(=O)[C@H](CCCN)NC(=O)[C@H](CCCNC(=N)N)NC(=O)[C@H](Cc3ccc(-c4ccccc4)cc3)NC(=O)[C@H](C(C)C)NC2=O)c1 (stereo partly drawn) [Compound 3547] ({CH2CO}-[hArg]Y(Carboxymethyl)D[Phe(3-Me)]V[Bip]R[Orn][dL][Dab][Cha][Thr(3ξ)][Thr(3ξ)]CKS[Aun]-OH; thioether N-14)
8,7.95,Cc1cccc(C[C@@H]2NC(=O)[C@H](CC(=O)O)NC(=O)[C@H](Cc3ccc(OCC(=O)O)cc3)NC(=O)[C@H](CN)NC(=O)CSC[C@@H](C(=O)N[C@@H](CCN)C(=O)NCCCCCCCCCCC(=O)O)NC(=O)[C@H](CCCN)NC(=O)[C@H](C(C)C)NC(=O)[C@H](CC3CCCCC3)NC(=O)[C@H](CCN)NC(=O)[C@@H](CC(C)C)NC(=O)[C@H](CCCN)NC(=O)[C@H](C(C)C)NC(=O)[C@H](Cc3ccc(-c4ccccc4)cc3)NC(=O)[C@H](C(C)C)NC2=O)c1 [Compound 2559] ({CH2CO}-[Dap]Y(Carboxymethyl)D[Phe(3-Me)]V[Bip]V[Orn][dL][Dab][Cha]V[Orn]C[Dab][Aun]-OH; thioether N-14)
9,8.15,CC(C)C[C@H]1NC(=O)[C@H](CCCN)NC(=O)[C@H](C(C)C)NC(=O)[C@H](Cc2ccc(-c3ccccc3)cc2)NC(=O)[C@H](C(C)C)NC(=O)[C@H](Cc2c[nH]c3ccccc23)NC(=O)[C@H](CC(=O)O)NC(=O)[C@H](Cc2ccc(OCC(=O)O)cc2)NC(=O)[C@H](CN)NC(=O)CSC[C@@H](C(=O)NCCCCCCCCCCC(=O)O)NC(=O)[C@H](CCCCN)NC(=O)[C@H](C(C)C)NC(=O)[C@H](CC2CCCCC2)NC(=O)[C@H](CCN)NC1=O [Compound 2603] ({CH2CO}-[Dap]Y(Carboxymethyl)DWV[Bip]V[Orn][dL][Dab][Cha]VKC[Aun]-OH; thioether N-14)
10,7.39,Cc1cccc(C[C@@H]2NC(=O)[C@H](CC(=O)O)NC(=O)[C@H](Cc3ccc(OCC(=O)O)cc3)NC(=O)[C@H](C(C)O)NC(=O)CSC[C@@H](C(=O)N[C@@H](CCN)C(=O)NCCOCCOCC(=O)NCCCCCCCCCCCCC(=O)O)NC(=O)[C@H](CC(=O)O)NC(=O)[C@H](C(C)C)NC(=O)[C@H](CC3CCCCC3)NC(=O)[C@H](CCN)NC(=O)[C@@H](CC(C)C)NC(=O)[C@H](CCCN)NC(=O)[C@H](Cc3ccc(C(=O)O)cc3)NC(=O)[C@H](Cc3ccc(-c4ccccc4)cc3)NC(=O)[C@H](Cc3ccc(C(=O)O)cc3)NC2=O)c1 (stereo partly drawn) [Compound 3843] ({CH2CO}-[Thr(3ξ)]Y(Carboxymethyl)D[Phe(3-Me)][Phe(4-COOH)][Bip][Phe(4-COOH)][Orn][dL][Dab][Cha]VDC[Dab][AEEA]-{NH(CH2)12COOH}; thioether N-14)
